Measurements as given in US20210205292A1, “INHIBITORS OF CREB-CBP INTERACTION FOR TREATMENT OF LEUKEMIA” (The Board of Trustees of the Leland Stanford Junior …, priority 2016, published 2021).

Columns and labels:
[1] = system: CREB-bound genes in KG-1 cells; assay: RNA-Seq of KG-1 cells; assay type: cell-based
Description: For Chip-Seq experiments, KG-1 cells were treated with 5 μM Compound A or DMSO for 6 hours. Cells were cross-linked with 1% formaldehyde at room temperature for 10 min and then incubated with […] for 5 min. After cross-linking, chromatin was digested by Micrococcal nuclease and then sonicated using SimpleChIP® Plus Enzymatic Chromatin IP Kit (Cell Signaling, Danvers, Mass.) following the manufacturer's protocol. Chromatin immunoprecipitations were carried out with anti-CREB antibody (Millipore, Billerica, Mass.) or a control IgG (Santa Cruz Biotechnology). The captured immunocomplexes containing bound transcriptional DNA fragments were eluted, with recovered DNA fragments used for PCR amplification. For RNA-Seq experiments, KG-1 cells were treated with Compound A (5 μM) or 0.1% DMSO for 12 hours. RNA was prepared using the Aurum Total RNA Mini Kit (Bio-Rad). Sample libraries were run using the Illumina sequencing platform. Two hundred million reads were collected on two biological replicates of the experiment. Libraries were prepared using the Illumina Truseq RNA samples prep kit per manufacturer's instructions. Fastq files were aligned using TopHat. Aligned BAM files were used for CuffDiff calculation of differentially expressed genes. CummeRbund R package was used to infer QC of the RNA-seq (GEO Submission GSE74928) [NCBI tracking system #17594369]. ChIP-seq analysis was performed. BETA analysis was used by inferring differentially expressed genes between DMSO and Compound A treated cells based on a fdr≤0.01 and gene distance of 100 kb (Galaxy/cistrome). DNA sequences enriched on ChIP-Seq were defined.
To determine the functional specificity and downstream effects of Compound A in AML, the CREB transcriptome was first defined in KG-1 cells using CREB chromatin immunoprecipitation followed by high-throughput sequencing (CREB ChIP-Se). […] In this way, the ‘on-target’ effects of Compound A could be assessed.

HL-60 cells = assay: Flow cytometry of apoptosis (c-PARP+, aqua amine+) in HL-60 cells; assay type: cell-based, human; conditions: Homo sapiens, 72 hours, 2 mM, read-out: cells apoptotic or non-viable
Description: AML cell lines were purchased from ATCC and maintained with IMDM (Gibco) supplemented with 10% FBS (Fisher Scientific) and 1% PSG (Gibco). Cells were plated at a density of 2-4×10^5 cells/ml, and treated with various doses of Compound A in 0.1% DMSO or 0.1% DMSO alone. Cell counts and viability were determined using the Vi-CELL XR Cell Viability Analyzer (Beckman Coulter). HL-60 and KG-1 cells overexpressing CREB or CBP were generated using lentiviral gene delivery with subsequent puromycin selection and FACs sorting for GFP. CREB knockdown was achieved by infecting cells with a lentivirus expressing the shRNA sequence 5′-[…]-3′ (SEQ ID NO:). For chemotherapy combination experiments, combination index values were calculated using median effects analysis on Calcusyn software. Human patient bone marrow samples were cultured in DMEM plus 20% FBS and 1×PSG, supplemented with recombinant GM-CSF (20 ng/ml), G-CSF (20 ng/ml), SCF (50 ng/ml), IL-3 (20 ng/ml), and IL-6 (10 ng/ml). Cells were plated at a concentration of 1×10^5 cells/ml in a 12-well plate. Vehicle (0.1% DMSO) or Compound A (2 μM) was added for up to 72 hours. All samples contained >85% AML blasts and were not sorted prior to performing experiments. […] Single cell suspensions of bone marrow culture were subsequently analyzed on a D×P10 flow cytometer (Cytek). […]

Structure (SMILES): N#Cc1ccc(NC(=O)c2cc3ccccc3cc2O)cc1 [Compound A, N-(4-cyanophenyl)-3-hydroxy-2-naphthamide]
- number of CREB-bound genes with greater than 50% reduced expression ([1]; 5 μM, 12 hours): 602
- number of CREB-bound genes with reduced expression ([1]; 5 μM, 12 hours, of 4680 CREB-bound sites): 2787
- target gene expression of other CBP-binding transcription factors (Rel, RelA, RelB, Foxo3, Foxo1, Myb) ([1]; KG-1 cells, RNA-Seq): no significant change
- cytotoxicity at 2000 µM (HL-60 cells): > 95%
